From PubChem BioAssay AID1259407 (Chemical Carcinogenesis Research Information System (CCRIS), 2018)
The source made the active and inactive calls. How the calls were made is not given here.

Tested on: CCRIS mutagenicity, Ames/micronucleus/aberration tests
Assay: CCRIS mutagenicity studies
[1] = Test System: AMES SALMONELLA TYPHIMURIUM, Strain/Indicator: TA100, Metabolic Activation: NONE, Method: PREINCUBATION
[2] = Test System: AMES SALMONELLA TYPHIMURIUM, Strain/Indicator: TA100, Metabolic Activation: RAT, LIVER, S-9, AROCLOR 1254, Method: PREINCUBATION
[3] = Test System: AMES SALMONELLA TYPHIMURIUM, Strain/Indicator: TA97, Metabolic Activation: NONE, Method: PREINCUBATION
[4] = Test System: AMES SALMONELLA TYPHIMURIUM, Strain/Indicator: TA97, Metabolic Activation: RAT, LIVER, S-9, AROCLOR 1254, Method: PREINCUBATION
[5] = Test System: AMES SALMONELLA TYPHIMURIUM, Strain/Indicator: TA102, Metabolic Activation: NONE, Method: PREINCUBATION
[6] = Test System: AMES SALMONELLA TYPHIMURIUM, Strain/Indicator: TA102, Metabolic Activation: RAT, LIVER, S-9, AROCLOR 1254, Method: PREINCUBATION
[7] = Test System: AMES SALMONELLA TYPHIMURIUM, Strain/Indicator: TA100, Metabolic Activation: NONE, Method: STANDARD PLATE
[8] = Test System: AMES SALMONELLA TYPHIMURIUM, Strain/Indicator: TA100, Metabolic Activation: RAT, LIVER, S-9, AROCLOR 1254, Method: STANDARD PLATE
[9] = Test System: AMES SALMONELLA TYPHIMURIUM, Strain/Indicator: TA98, Metabolic Activation: NONE, Method: STANDARD PLATE
[10] = Test System: AMES SALMONELLA TYPHIMURIUM, Strain/Indicator: TA98, Metabolic Activation: RAT, LIVER, S-9, AROCLOR 1254, Method: STANDARD PLATE

In the case of `CC(C)Nc1ccccc1`, the mutagenic call (Test System: AMES SALMONELLA TYPHIMURIUM, Strain/Indicator: TA98, Metabolic Activation: HAMSTER, LIVER, S-9, AROCLOR 1254 (5 OR 30%), Method: PREINCUBATION) is reported as “inactive; negative”, the mutagenic call (Test System: AMES SALMONELLA TYPHIMURIUM, Strain/Indicator: TA98, Metabolic Activation: NONE, Method: PREINCUBATION) is reported as “inactive; negative” and the mutagenic call (Test System: AMES SALMONELLA TYPHIMURIUM, Strain/Indicator: TA98, Metabolic Activation: RAT, LIVER, S-9, AROCLOR 1254 (10%), Method: PREINCUBATION) is reported as “inactive; negative”. The mutagenic call (Test System: AMES SALMONELLA TYPHIMURIUM, Strain/Indicator: TA100, Metabolic Activation: HAMSTER, LIVER, S-9, AROCLOR 1254 (10%), Method: PREINCUBATION) was “inactive; negative”, the mutagenic call [1] was “inactive; negative” and the mutagenic call (Test System: AMES SALMONELLA TYPHIMURIUM, Strain/Indicator: TA100, Metabolic Activation: RAT, LIVER, S-9, AROCLOR 1254 (10%), Method: PREINCUBATION) was “inactive; negative”. For the same compound, the mutagenic call (Test System: AMES SALMONELLA TYPHIMURIUM, Strain/Indicator: TA1535, Metabolic Activation: HAMSTER, LIVER, S-9, AROCLOR 1254 (10%), Method: PREINCUBATION) was “inactive; negative”, the mutagenic call (Test System: AMES SALMONELLA TYPHIMURIUM, Strain/Indicator: TA1535, Metabolic Activation: NONE, Method: PREINCUBATION) was “inactive; negative” and the mutagenic call (Test System: AMES SALMONELLA TYPHIMURIUM, Strain/Indicator: TA1535, Metabolic Activation: RAT, LIVER, S-9, AROCLOR 1254 (10%), Method: PREINCUBATION) was “inactive; negative”. The mutagenic call (Test System: AMES SALMONELLA TYPHIMURIUM, Strain/Indicator: TA1537, Metabolic Activation: HAMSTER, LIVER, S-9, AROCLOR 1254 (10%), Method: PREINCUBATION) was “inactive; negative”, the mutagenic call (Test System: AMES SALMONELLA TYPHIMURIUM, Strain/Indicator: TA1537, Metabolic Activation: NONE, Method: PREINCUBATION) was “inactive; negative” and the mutagenic call (Test System: AMES SALMONELLA TYPHIMURIUM, Strain/Indicator: TA1537, Metabolic Activation: RAT, LIVER, S-9, AROCLOR 1254 (10%), Method: PREINCUBATION) was “inactive; negative”.

`Nc1c(O)ccc2ccccc12` was tested, and the mutagenic call [2] was “inactive; negative”.

For `Nc1nc2c(ncn2[C@@H]2O[C@H](COP(=O)(O)O)[C@@H](O)[C@H]2O)c(=O)[nH]1`, the mutagenic call [3] was “inactive; negative”, the mutagenic call [4] was “inactive; negative” and the mutagenic call [5] was “inactive; negative”. For the same compound, the mutagenic call [6] was “inactive; negative”.

With `C=C(Cl)CSC(=S)N(CC)CC` the mutagenic call [7] was “inactive; negative”, the mutagenic call (Test System: AMES SALMONELLA TYPHIMURIUM, Strain/Indicator: TA100, Metabolic Activation: RAT, LIVER, CYTOSOL, AROCLOR 1254, Method: STANDARD PLATE) was “inactive; negative” and the mutagenic call (Test System: AMES SALMONELLA TYPHIMURIUM, Strain/Indicator: TA100, Metabolic Activation: RAT, LIVER, MICROSOMES, AROCLOR 1254, Method: STANDARD PLATE) was “inactive; negative”. For the same compound, the mutagenic call (Test System: AMES SALMONELLA TYPHIMURIUM, Strain/Indicator: TA100, Metabolic Activation: RAT, LIVER, MICROSOMES, CYTOSOL, AROCLOR 1254, Method: STANDARD PLATE) was “active; positive” and the mutagenic call [8] was “active; positive”.

With `Clc1ccccn1` the mutagenic call (Test System: AMES SALMONELLA TYPHIMURIUM, Strain/Indicator: TA97, Metabolic Activation: NONE, Method: STANDARD PLATE) was “inactive; negative”, the mutagenic call (Test System: AMES SALMONELLA TYPHIMURIUM, Strain/Indicator: TA97, Metabolic Activation: RAT, LIVER, S-9, AROCLOR 1254, Method: STANDARD PLATE) was “active; positive” and the mutagenic call [9] was “inactive; negative”. For the same compound, the mutagenic call [10] was “active; positive”, the mutagenic call [7] was “inactive; negative” and the mutagenic call [8] was “active; positive”. The mutagenic call (Test System: AMES SALMONELLA TYPHIMURIUM, Strain/Indicator: TA102, Metabolic Activation: NONE, Method: STANDARD PLATE) was “inactive; negative”, the mutagenic call (Test System: AMES SALMONELLA TYPHIMURIUM, Strain/Indicator: TA102, Metabolic Activation: RAT, LIVER, S-9, AROCLOR 1254, Method: STANDARD PLATE) was “active; positive” and the mutagenic call (Test System: MOUSE LYMPHOMA, Strain/Indicator: L5178Y (TK+/TK-), Metabolic Activation: NONE) was “active; positive”. The mutagenic call (Test System: MOUSE LYMPHOMA, Strain/Indicator: L5178Y (TK+/TK-), Metabolic Activation: RAT, LIVER, S-9, AROCLOR 1254) was “active; positive”.

`CC(C)(C)NCC(O)COc1cccc2c1CCCC2=O` (centres undefined) was tested, and the mutagenic call [9] was “inactive; negative”, the mutagenic call [10] was “inactive; negative” and the mutagenic call [7] was “inactive; negative”. For the same compound, the mutagenic call [8] was “inactive; negative”.

In the case of `O=C(O)COc1ccccc1`, the mutagenic call [3] is reported as “inactive; negative”, the mutagenic call [4] is reported as “inactive; negative” and the mutagenic call [1] is reported as “inactive; negative”. For the same compound, the mutagenic call [2] was “inactive; negative”, the mutagenic call [5] was “inactive; negative” and the mutagenic call [6] was “inactive; negative”.

For `O=S1(=O)OC(c2cc(Br)c(O)c(Br)c2)(c2cc(Br)c(O)c(Br)c2)c2ccccc21`, the mutagenic call [9] was “inactive; negative”, the mutagenic call [10] was “inactive; negative” and the mutagenic call [7] was “inactive; negative”. For the same compound, the mutagenic call [8] was “inactive; negative”, the mutagenic call (Test System: AMES SALMONELLA TYPHIMURIUM, Strain/Indicator: TA1535, Metabolic Activation: NONE, Method: STANDARD PLATE) was “inactive; negative” and the mutagenic call (Test System: AMES SALMONELLA TYPHIMURIUM, Strain/Indicator: TA1535, Metabolic Activation: RAT, LIVER, S-9, AROCLOR 1254, Method: STANDARD PLATE) was “inactive; negative”. The mutagenic call (Test System: AMES SALMONELLA TYPHIMURIUM, Strain/Indicator: TA1537, Metabolic Activation: NONE, Method: STANDARD PLATE) was “inactive; negative”, the mutagenic call (Test System: AMES SALMONELLA TYPHIMURIUM, Strain/Indicator: TA1537, Metabolic Activation: RAT, LIVER, S-9, AROCLOR 1254, Method: STANDARD PLATE) was “inactive; negative” and the mutagenic call (Test System: AMES SALMONELLA TYPHIMURIUM, Strain/Indicator: TA1538, Metabolic Activation: NONE, Method: STANDARD PLATE) was “inactive; negative”. For the same compound, the mutagenic call (Test System: AMES SALMONELLA TYPHIMURIUM, Strain/Indicator: TA1538, Metabolic Activation: RAT, LIVER, S-9, AROCLOR 1254, Method: STANDARD PLATE) was “inactive; negative”, the mutagenic call (Test System: MOUSE LYMPHOMA, Strain/Indicator: L5178Y (TK+/TK-), Metabolic Activation: NONE, Method: SUSPENSION/PLATE) was “inactive; negative” and the mutagenic call (Test System: MOUSE LYMPHOMA, Strain/Indicator: L5178Y (TK+/TK-), Metabolic Activation: RAT, LIVER, S-9, AROCLOR 1254, Method: SUSPENSION/PLATE) was “inactive; negative”.
